{"source": "patent US7176280B2", "about": "“Isolated polypeptides and compositions from the venom of P. transvaalicus and methods of use” (The Regents of the University of California, priority 2001, dated 2007)", "key": {"[1]": {"details": "cited from earlier work"}, "Male Swiss-Webster mice [2]": {"tested_on": "Male Swiss-Webster mice", "assay": "Mouse injection bioassay (intracerebroventricular; also subcutaneous, intraperitoneal)", "assay_type": "in vivo", "details": "for symptoms in injected mice (in words): intracerebroventricular injection, dose not given or as in the words; for symptoms in mice: 7–8 week old male Swiss-Webster mice; for Mouse (IC) high dose / Mouse (IC) low dose: preliminary biological activity", "description": "(§1) Bioassays: Male Swiss-Webster mice were purchased from Charles River, Inc., and housed at the Animal Housing Facility, UC Davis. Blowfly (Sarcophaga spp.), crickets (Acheta domesticus) and Anole lizards (Anoles caroliensis) were purchased from Carolina Biologicals (Burlington, N.C.). Cotton bollworms (Heliothis virescens) were obtained from USDA/ARS (Stoneville, […].) and reared on artificial diet. Collected fractions were tested on mice by intracerebroventricular injections and by injecting last instar blowfly larvae. Third instar cotton bollworms and adult common house crickets were also used in screening for insecticidal components. Briefly, fractions were concentrated to dryness using a Heto Speed Vac (ATR, Inc. Emeryville, Calif.). Dried samples were resuspended in 10 μl 20 mM ammonium acetate buffer with 1 μg/μl BSA and incubated overnight at 4° C. to insure proper refolding before injection to the test animals. Mice were anesthetized using ethyl ether and intracerebroventricular injections of peptide solutions were executed immediately. […] All symptoms were observed and recorded up to 24 hours post injection. All experiments were carried out in accordance with the guidelines laid down by the National Institutes of Health in the USA regarding the care and use of experimental animals.\nNext, the biological activities of Ikitoxin and Birtoxin were compared. Mouse biological activity was evaluated by intracerebroventricular injections of 7–8 week old male Swiss-Webster mice using […] purified toxin.\nThe biological activities of dortoxin, bestoxin, and ikitoxin were evaluated in blowfly larvae, tobacco budworm larvae, and mice. Blowfly larvae, tobacco budworm larvae were injected with 1 μL of fraction or toxin solution in water. The effects were observed and recorded up to 24 hrs post injection. The toxins to were also injected to mice (swiss-webster male 4–6 week old mice) through an intracerebroventricular route (brain). The mice were anesthetized using ethyl ether then injected with various doses of 5 μL of test solution. The effects were again observed and recorded up to 24 hrs post injection. […] The experiments were terminated after 48 hrs of observation. […] Bestoxin is only two amino acid different from its sister peptide dortoxin. The MALDI determined molecular masses for dortoxin (6643 Da) and bestoxin (6603 Da) also agree with the two amino acid difference of Lys20 in dortoxin to Glu20 in bestoxin and Glu45 in dortoxin to Ser45 in bestoxin."}, "[3]": {"tested_on": "sodium channel binding site 3", "assay": "Ion channel binding properties of birtoxin"}, "rat brain synaptosomes": {"tested_on": "rat brain synaptosomes", "assay_type": "binding", "details": "for EC50: read-out: EC50 (effective concentration)"}, "[4]": {"tested_on": "Blowfly (Sarcophaga spp.) larvae", "assay": "Blowfly larvae injection bioassay", "assay_type": "in vivo", "details": "for activity against blowfly (Sarcophaga) larvae (in words): injection into larvae", "description": "Uctoxin HPLC Purification: Uctoxin was purified through three steps of RP-HPLC guided by insect and mouse bioassays. Initially the venom of P.transvaalicus was resuspended in solvent A (2% acetonitrile 98% water 0.1% TFA) and ran multiple times through a C4 magic bullet column hooked up to a Magic 2002 microbore HPLC System with a linear gradient of 2 to 65% solvent B (98% acetonitrile 2% water 0.1% TFA) in 15 minutes at a flow rate of 300 μL/min. as described above for ikitoxon. UV trace at 214 and 280 nm was monitored. Fraction P3 from the first column was collected, several runs were pooled and freeze dried. This fraction was run on a Michrom C18 microbore column on the same system with a linear gradient of 2 to 65% solvent B in 30 minutes at a flow rate of 50 μL/min. Peak 2 from the C18 column was further purified by running it through a microbore phenyl column on the same system with the same gradient conditions. Purity was confirmed using MALDI-TOF MS. Biological activity of peptide was monitored by intracerebroventricular injection of mice and also injections of blowfly and tobacco budworm larvae. For bioassays uctoxin was purified and resuspended in 20 mM ammonium acetate buffer with 1 ug/ul BSA. (The 50% effective doses (ED50) were determined according to Reed and Muench (Reed L. J., Muench, S. 1938 Am.J.Hyg 27, 493–497.))\nas §1\nThe biological activities of dortoxin, bestoxin, and ikitoxin were evaluated in blowfly larvae, tobacco budworm larvae, and mice. Blowfly larvae, tobacco budworm larvae were injected with 1 μL of fraction or toxin solution in water. The effects were observed and recorded up to 24 hrs post injection. The toxins to were also injected to mice (swiss-webster male 4–6 week old mice) through an intracerebroventricular route (brain). The mice were anesthetized using ethyl ether then injected with various doses of 5 μL of test solution. The effects were again observed and recorded up to 24 hrs post injection. […] The MALDI determined molecular masses for dortoxin (6643 Da) and bestoxin (6603 Da) also agree with the two amino acid difference of Lys20 in dortoxin to Glu20 in bestoxin and Glu45 in dortoxin to Ser45 in bestoxin."}, "Male Swiss-Webster mice [5]": {"tested_on": "Male Swiss-Webster mice", "assay": "Mouse injection bioassay (intracerebroventricular; also subcutaneous, intraperitoneal)", "assay_type": "in vivo", "details": "preliminary biological activity"}, "Insect Lepidoptera": {"tested_on": "Insect Lepidoptera", "assay": "Parakinin in vivo assay on Lepidoptera", "details": "preliminary biological activity", "from_the_text": "The preliminary biological activity of parakinins I investigated by in vivo assays conducted on insects and mice. Parakinins are active and potent against both invertebrates and vertebrates. These in vivo effects implicate potential pharmaceutical use and development. Due to the small nature of parakinins analogs of these peptides can be synthesized and tested very rapidly."}, "[6]": {"details": "intracerebroventricular, 0.2–1 mg purified toxin"}}, "note": "Entries after “also recorded” stand apart in the source; their conditions may differ. No end group written: not given here.", "data": [{"substance": "RPPGFSPFR [bradykinin]", "values": [{"measurement": "destroyed on a single passage through the pulmonary circulation", "setting": "[1]; anesthetized rat", "value": "98%–99%"}, {"measurement": "half life in the systemic circulation", "setting": "[1]; rat, in vivo", "value": "less than 30 seconds"}]}, {"substance": "bestoxin (ADVPGNYPLDKDGNTYTCLELGENKDCQKVCKLHGVQYGYCYAFSCWCKEYLDDKDSV; listed as Parabuthus transvaalicus)", "values": [{"measurement": "sensitivity to stimuli of injected mice", "setting": "Male Swiss-Webster mice [2]; intracerebroventricular", "value": "hypersensitive to stimuli"}, {"measurement": "state of the mice at the end of 48 hrs", "setting": "Male Swiss-Webster mice [2]; intracerebroventricular", "value": "still live, dessicated, and exhausted but still continued to roll"}, {"measurement": "symptoms in injected mice (in words)", "setting": "Male Swiss-Webster mice [2]", "value": "contract, twist and roll around itself indefinitely"}]}, {"substance": "birtoxin (ADVPGNYPLDKDGNTYKCFLLGGNEECLNVCKLHGVQYGYCYASKCWCEYLEDDKDVS; not fully specified; ends and bridges not checked)", "values": [{"measurement": "sodium channel binding site and mode of action", "setting": "[3]", "value": "binds to sodium channel binding site 3 and blocks the sodium channel by prolonging the inactivation"}, {"measurement": "enhancement of the binding of [3H] BTX", "setting": "rat brain synaptosomes", "value": "about 4.32 fold"}, {"measurement": "EC50", "setting": "rat brain synaptosomes", "value": "~5", "unit": "nM"}, {"measurement": "effect of injection in mice", "setting": "Male Swiss-Webster mice [2]; 1 μg of pure birtoxin", "value": "induced severe neurotoxic symptoms in mice up to 24 hours but was not lethal"}, {"measurement": "effect of injection in mice", "setting": "Male Swiss-Webster mice [2]; 2 μg of pure peptide", "value": "lethal"}, {"measurement": "symptoms in injected mice (in words)", "setting": "Male Swiss-Webster mice [2]", "value": "induced serious symptoms, including tremors, which lasted up to 24 hours post injection at submicrogram amounts"}, {"measurement": "symptoms in mice", "setting": "Male Swiss-Webster mice [2]; [6]", "value": "convulsions, tremors, increased heart rate and finally death"}, {"measurement": "lethality to mice (summary statement)", "setting": "Male Swiss-Webster mice [2]; mouse, in vivo", "value": "lethal to mice at low microgram quantities"}]}, {"substance": "dortoxin (ADVPGNYPLDKDGNTYTCLKLGENKDCQKVCKLHGVQYGYCYAFECWCKEYLDDKDSV; listed as Parabuthus transvaalicus)", "values": [{"measurement": "symptoms in injected mice (in words)", "setting": "Male Swiss-Webster mice [2]", "value": "convulsions, tremors and death"}, {"measurement": "LD99", "setting": "Male Swiss-Webster mice [2]; intracerebroventricular, Swiss-Webster male 4–6 week old mice", "value": "< 0.5 μg/20 gr of mouse"}]}, {"substance": "ikitoxin (ADVPGNYPLDKDGNTYKCFLLGENEECLNVCKLHGVQYGYCYASKCWCEYLEDDKDVS; listed as Parabuthus transvaalicus)", "values": [{"measurement": "activity against blowfly (Sarcophaga) larvae (in words)", "setting": "[4]", "value": "not active against Sarcophaga"}, {"measurement": "symptoms in injected mice (in words)", "setting": "Male Swiss-Webster mice [2]", "value": "induced periodic unprovoked jumps in injected mice"}, {"measurement": "time course of the symptom", "setting": "Male Swiss-Webster mice [2]; [6]", "value": "Within three hours of injection the symptom gradually faded"}, {"measurement": "initial frequency of unprovoked jumps", "setting": "Male Swiss-Webster mice [2]; intracerebroventricular, 0.2–1 mg purified toxin, for 20 minutes", "value": "about 3 jumps per minute"}, {"measurement": "symptoms in mice", "setting": "Male Swiss-Webster mice [2]; [6]", "value": "periodic unprovoked jumps"}, {"measurement": "lethality during the observation period", "setting": "Male Swiss-Webster mice [2]; intracerebroventricular, range of injected doses 0.2–1 mg", "value": "did not show lethality"}]}, {"substance": "parakinin-1 (PFIVPPFR; listed as Parabuthus transvaalicus)", "values": [{"measurement": "Mouse (SC)", "setting": "Male Swiss-Webster mice [5]", "value": "Hyperventilation,; also recorded: Hyperactivity"}, {"measurement": "Insect blowfly", "setting": "[4]; preliminary biological activity", "value": "Contractive paralysis"}, {"measurement": "Mouse (IC) high dose", "setting": "Male Swiss-Webster mice [2]", "value": "Paralysis"}, {"measurement": "Mouse (IC) low dose", "setting": "Male Swiss-Webster mice [2]", "value": "Hyperventilation,; also recorded: Hyperactivity"}, {"measurement": "Insect Lepidoptera", "setting": "Insect Lepidoptera", "value": "Contractive paralysis"}]}, {"substance": "parakinin-2 (PFVVPPFR; listed as Parabuthus transvaalicus)", "values": [{"measurement": "Mouse (SC)", "setting": "Male Swiss-Webster mice [5]", "value": "Hyperactivity"}, {"measurement": "Mouse (IC) high dose", "setting": "Male Swiss-Webster mice [2]", "value": "Paralysis"}, {"measurement": "Mouse (IC) low dose", "setting": "Male Swiss-Webster mice [2]", "value": "Hyperventilation,; also recorded: Hyperactivity"}]}, {"substance": "uctoxin", "values": [{"measurement": "enhancement of the binding of [3H] BTX", "setting": "rat brain synaptosomes", "value": 2, "unit": "fold"}, {"measurement": "EC50", "setting": "rat brain synaptosomes", "value": "~60", "unit": "nM"}, {"measurement": "activity against blowfly (Sarcophaga) larvae (in words)", "setting": "[4]", "value": "bioactivity only in the case of the first major peak"}, {"measurement": "activity against blowfly (Sarcophaga) larvae (in words)", "setting": "[4]; listed as Uctoxin", "value": "immediate flaccid paralysis"}, {"measurement": "ED50", "setting": "[4]; last instar Sarcophaga larvae, flaccid paralysis", "value": "about 70 ng/100 mg larvae"}, {"measurement": "symptoms in injected mice (in words)", "setting": "Male Swiss-Webster mice [2]", "value": "consistent contraction and tremors"}, {"measurement": "time to lethality", "setting": "Male Swiss-Webster mice [2]; intracerebroventricular, 0.5 μg of uctoxin", "value": "≤ 30", "unit": "min"}]}]}
